Measurements taken from ChEMBL document CHEMBL3885861, “Open TG-GATES”.

Species: Rattus norvegicus
Assay: Open TG-GATES - Regimen: Single
Assay type: toxicity, organism-based, Sprague-Dawley
Set-up: regimen Single, gender Male, age 6 weeks
Conditions: in vivo, po, 0 mg/kg, route gavage, dose level Control; for APTT / Bas / Eos / Fbg / Hb / Ht / Lym / MCH / MCHC / MCV / Mono / Neu / PT / Plat / RBC / Ret / WBC: tissue Blood; for LIVER: tissue Liver; for A/G / ALP / ALT / AST / BUN / CRE / Ca / Cl / DBIL / GLC / IP / K / LDH / Na / PL / RALB / TBIL / TC / TG / TP / gamma-GTP: tissue Plasma

O=[N+]([O-])c1ccc(O)c([N+](=O)[O-])c1 [2,4-DINITROPHENOL]
TERMINAL_BW (3 h): 200.9 g
APTT (3 h): 15.9 s
Bas (3 h): 0%
Eos (3 h): 0.8%
Fbg (3 h): 241.6 mg/dL
Hb (3 h): 13.2 g/dL
Ht (3 h): 39.5%
Lym (3 h): 74%
MCH (3 h): 21.6 pg
MCHC (3 h): 33.5%
MCV (3 h): 64.4 fL
Mono (3 h): 8.4%
Neu (3 h): 16.8%
PT (3 h): 11.8 s
Plat (3 h): 109.2 x10_4/uL
RBC (3 h): 613.4 x10_4/ul
Ret (3 h): 9.5%
WBC (3 h): 98.2 x10_2/uL
LIVER (3 h): 9.3 g
A/G (3 h): 2.4
ALP (3 h): 1373.4 IU/L
ALT (3 h): 40.8 IU/L
AST (3 h): 69.4 IU/L
BUN (3 h): 11 mg/dL
CRE (3 h): 0.3 mg/dL
Ca (3 h): 11.1 mg/dL
Cl (3 h): 103.6 meq/L
DBIL (3 h): 0.01 mg/dL
GLC (3 h): 175.6 mg/dL
IP (3 h): 9.4 mg/dL
K (3 h): 4.4 meq/L
LDH (3 h): 117.8 IU/L
Na (3 h): 138.6 meq/L
PL (3 h): 150.4 mg/dL
RALB (3 h): 3.7 g/dL
TBIL (3 h): 0.044 mg/dL
TC (3 h): 87.2 mg/dL
TG (3 h): 52.4 mg/dL
TP (3 h): 5.3 g/dL
gamma-GTP (3 h): 0 IU/L
TERMINAL_BW (6 h): 197.1 g
APTT (6 h): 16.4 s
Bas (6 h): 0%
Eos (6 h): 0.8%
Fbg (6 h): 232 mg/dL
Hb (6 h): 13.4 g/dL
Ht (6 h): 39.8%
Lym (6 h): 77.2%
MCH (6 h): 21.5 pg
MCHC (6 h): 33.6%
MCV (6 h): 63.9 fL
Mono (6 h): 9.6%
Neu (6 h): 12.4%
PT (6 h): 12.2 s
Plat (6 h): 127 x10_4/uL
RBC (6 h): 623.4 x10_4/ul
Ret (6 h): 8.9%
WBC (6 h): 127.4 x10_2/uL
LIVER (6 h): 8.9 g
A/G (6 h): 2.5
ALP (6 h): 1236 IU/L
ALT (6 h): 36.4 IU/L
AST (6 h): 63.4 IU/L
BUN (6 h): 10.4 mg/dL
CRE (6 h): 0.4 mg/dL
Ca (6 h): 10.8 mg/dL
Cl (6 h): 104.8 meq/L
DBIL (6 h): 0.01 mg/dL
GLC (6 h): 191.6 mg/dL
IP (6 h): 9.3 mg/dL
K (6 h): 4.4 meq/L
LDH (6 h): 96.8 IU/L
Na (6 h): 138.8 meq/L
PL (6 h): 135.4 mg/dL
RALB (6 h): 3.9 g/dL
TBIL (6 h): 0.056 mg/dL
TC (6 h): 79.8 mg/dL
TG (6 h): 52.4 mg/dL
TP (6 h): 5.5 g/dL
gamma-GTP (6 h): 0 IU/L
TERMINAL_BW (9 h): 203.5 g
APTT (9 h): 15.9 s
Bas (9 h): 0%
Eos (9 h): 1%
Fbg (9 h): 234.6 mg/dL
Hb (9 h): 13 g/dL
Ht (9 h): 38.7%
Lym (9 h): 76.2%
MCH (9 h): 22 pg
MCHC (9 h): 33.7%
MCV (9 h): 65.1 fL
Mono (9 h): 8.8%
Neu (9 h): 14.6%
PT (9 h): 12.2 s
Plat (9 h): 117.6 x10_4/uL
RBC (9 h): 595.4 x10_4/ul
Ret (9 h): 9.4%
WBC (9 h): 108 x10_2/uL
LIVER (9 h): 8.7 g
A/G (9 h): 2.5
ALP (9 h): 1123.8 IU/L
ALT (9 h): 32.8 IU/L
AST (9 h): 63.8 IU/L
BUN (9 h): 11.6 mg/dL
CRE (9 h): 0.3 mg/dL
Ca (9 h): 10.9 mg/dL
Cl (9 h): 104.2 meq/L
DBIL (9 h): 0.01 mg/dL
GLC (9 h): 195.2 mg/dL
IP (9 h): 10.4 mg/dL
K (9 h): 4.6 meq/L
LDH (9 h): 109.6 IU/L
Na (9 h): 139.4 meq/L
PL (9 h): 140 mg/dL
RALB (9 h): 3.8 g/dL
TBIL (9 h): 0.044 mg/dL
TC (9 h): 84.6 mg/dL
TG (9 h): 47.8 mg/dL
TP (9 h): 5.4 g/dL
gamma-GTP (9 h): 0.2 IU/L
TERMINAL_BW (24 h): 219.1 g
APTT (24 h): 16.3 s
Bas (24 h): 0%
Eos (24 h): 1.2%
Fbg (24 h): 228.6 mg/dL
Hb (24 h): 12.7 g/dL
Ht (24 h): 37.5%
Lym (24 h): 72%
MCH (24 h): 21.1 pg
MCHC (24 h): 33.8%
MCV (24 h): 62.5 fL
Mono (24 h): 9.4%
Neu (24 h): 17.8%
PT (24 h): 11.6 s
Plat (24 h): 138.4 x10_4/uL
RBC (24 h): 600 x10_4/ul
Ret (24 h): 8.1%
WBC (24 h): 106.6 x10_2/uL
LIVER (24 h): 10.9 g
A/G (24 h): 2.4
ALP (24 h): 1480.2 IU/L
ALT (24 h): 37.4 IU/L
AST (24 h): 62.4 IU/L
BUN (24 h): 17 mg/dL
CRE (24 h): 0.4 mg/dL
Ca (24 h): 11.4 mg/dL
Cl (24 h): 103.2 meq/L
DBIL (24 h): 0.012 mg/dL
GLC (24 h): 185.6 mg/dL
IP (24 h): 7.6 mg/dL
K (24 h): 4.6 meq/L
LDH (24 h): 84.2 IU/L
Na (24 h): 139 meq/L
PL (24 h): 160.4 mg/dL
RALB (24 h): 3.9 g/dL
TBIL (24 h): 0.034 mg/dL
TC (24 h): 84 mg/dL
TG (24 h): 120.4 mg/dL
TP (24 h): 5.5 g/dL
gamma-GTP (24 h): 0.2 IU/L
